# Test results from patent US20230286946A1, “DIFLUOROMETHYL-PYRIDIN-2-YL TRIAZOLES” (Boehringer Ingelheim International GmbH, priority 2020, published 2023).
# Key:
# α5ß2 γ2 GABAA Receptor = target: T1, α5ß2 γ2 GABAA Receptor (Homo sapiens, UniProt P18507+P31644); experiment: Assay B: in vitro evaluation of modulation of α5ß2γ2 GABAA receptor, two-electrode voltage clamp in oocytes; type: cell-based; settings: for EC50: co-application with 0.5 μM GABA, oocytes, read-out: Assay B: GABAA α 5 β 3 γ 2 EC50
# T1 sequence (P31644 32-462): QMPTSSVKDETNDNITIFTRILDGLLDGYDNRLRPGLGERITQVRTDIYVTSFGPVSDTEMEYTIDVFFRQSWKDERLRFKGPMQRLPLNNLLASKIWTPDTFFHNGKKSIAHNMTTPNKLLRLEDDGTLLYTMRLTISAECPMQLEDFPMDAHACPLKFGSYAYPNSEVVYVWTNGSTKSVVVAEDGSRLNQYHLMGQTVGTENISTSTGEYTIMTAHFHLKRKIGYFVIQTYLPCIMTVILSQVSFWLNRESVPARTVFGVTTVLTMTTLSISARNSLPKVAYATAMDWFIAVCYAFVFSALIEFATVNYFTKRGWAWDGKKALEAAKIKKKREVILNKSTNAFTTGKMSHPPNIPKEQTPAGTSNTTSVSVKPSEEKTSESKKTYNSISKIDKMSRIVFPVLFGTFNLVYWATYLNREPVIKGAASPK
# T1 sequence (P18507 40-376 limits assumed): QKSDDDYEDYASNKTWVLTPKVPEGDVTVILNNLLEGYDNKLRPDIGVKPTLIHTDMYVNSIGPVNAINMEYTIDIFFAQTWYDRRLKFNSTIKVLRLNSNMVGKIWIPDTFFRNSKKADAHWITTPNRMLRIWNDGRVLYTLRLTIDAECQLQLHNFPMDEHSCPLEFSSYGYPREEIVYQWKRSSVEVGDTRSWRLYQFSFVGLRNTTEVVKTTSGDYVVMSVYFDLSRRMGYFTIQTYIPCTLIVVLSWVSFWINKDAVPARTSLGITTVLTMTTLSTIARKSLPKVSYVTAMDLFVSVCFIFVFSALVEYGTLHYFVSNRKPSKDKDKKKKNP
# Method: Assay B: In Vitro Evaluation of Modulation of α5ß2 γ2 GABAA Receptor.
# Modulatory efficacy of compounds of formular (I) is determined electrophysiological recordings in oocytes using the two-electrode voltage clamp (TEVC) technique. Oocytes are injected with cRNA for human GABAA receptor subunits α5, ß2 and γ2 in a 3:1:3 ratio and modulatory efficacy is evaluated by co-applications with a submaximal EC5-20 GABA concentration (0.5 μM) termed GABA control. As a standard, the compounds are tested in five concentrations (3.16, 0.316, 0.0316, 0.00316 and 0.000316 μM) on each oocyte starting with the lowest concentration. Background subtracted peak current amplitudes are normalized to the respective GABAcontrol current, converted to % change and depicted +/−S.E.M. as a function of increasing compound concentrations. Plotted datapoints are fitted to the empirical Hill equation using non-linear regression. 95% confidence intervals for maximal efficacy (Bottom) and potency (Log EC50) are derived from this fitting routine.
# [1] = Metabolic stability in human liver microsomes (Human MST); type: in vitro ADME; settings: pH 7.6, pooled human liver microsomes, 37° C., read-out: Human MST t½
# Method: Assessment of Metabolic Stability in Human Liver Microsomes (Human MST) The metabolic stability of the compounds according to the invention may be investigated as follows: The metabolic degradation of the test compound is assayed at 37° C. with pooled human liver microsomes. The final incubation volume of 100 μL per time point contains TRIS buffer pH 7.6 at room temperature (0.1 M), MgCl2 (5 mM), microsomal protein (1 mg/mL) and the test compound at a final concentration of 1 μM. Following a short pre-incubation period at 37° C., the reactions are initiated by addition of beta-nicotinamide adenine dinucleotide phosphate, reduced form (NADPH, 1 mM), and terminated by transferring an aliquot into solvent after different time points. After centrifugation (10000 g, 5 min), an aliquot of the supernatant is assayed by LCMS/MS for the amount of parent compound. The half-life (t1/2) is determined by the slope of the semi-logarithmic plot of the concentration-time profile.
# human MDR1 P-gp = experiment: Assessment of efflux in MDCK cells transfected with the human MDR1 gene; type: in vitro ADME, canine; settings: dog, pH 7.4, 37° C.; for Papp A→B: apical-to-basal, read-out: MDCK-PGP A-B; for efflux ratio: read-out: MDCK-PGP Efflux ratio [PEBA/PEAB]
# Method: Assessment of efflux in Madin-Darby canine kidney (MDCK) cells transfected with the human MDR1 gene to assess brain penetration (Drug Metabolism and Disposition February 2008, 36 (2) 268-275; DOI: https://doi.org/10.1124/dmd.107.017434)
# Apparent permeability coefficients (PE) of the compounds across the MDCK-MDR1 cell monolayers are measured (pH 7.4, 37° C.) in apical-to-basal (AB) and basal-to-apical (BA) transport direction. AB permeability (PEAB) represents drug absorption from the blood into the 35 brain and BA permeability (PEBA) drug efflux from the brain back into the blood via both passive permeability as well as active transport mechanisms mediated by efflux and uptake transporters that are expressed on the MDCK-MDR1 cells, predominantly by the overexpressed human MDR1 P-gp. The compounds are assigned to permeability/absorption classes by comparison of the AB permeabilities with the AB permeabilities of reference compounds with known in vitro permeability and oral absorption in the human. Identical or similar permeabilities in both transport directions indicate passive permeation, vectorial permeability points to additional active transport mechanisms. Higher PEBA than PEAB indicates the involvement of active efflux mediated by MDR1 P-gp. Active transport is concentration-dependently saturable.
# MDCK-MDR1 cells (1-2×10e5 cells/1 cm2 area) are seeded on filter inserts (Costar transwell polycarbonate or PET filters, 0.4 μm pore size) and cultured (DMEM) for 7 days. Subsequently, the MDR1 expression is boosted by culturing the cells with 5 mM sodium butyrate in full medium for 2 days. Compounds are dissolved in appropriate solvent (like DMSO, 1-20 mM stock solutions). Stock solutions are diluted with HTP-4 buffer (128.13 mM NaCl, 5.36 mM KCl, 1 mM MgSO4, 1.8 mM CaCl2, 4.17 mM NaHCO3, 1.19 mM Na2HPO4×7H2O, 0.41 mM NaH2PO4×H2O, 15 mM HEPES, 20 mM glucose, 0.25% BSA, pH 7.4) to prepare the transport solutions (0.1-300 μM compound, final DMSO <=0.5%). The transport solution (TL) is applied to the apical or basolateral donor side for measuring A-B or B-A permeability (3 filter replicates), respectively. The receiver side contains the same buffer as the donor side. Samples are collected at the start and end of experiment from the donor and at various time intervals for up to 2 hours also from the receiver side for concentration measurement by HPLC-MS/MS or scintillation counting. Sampled receiver volumes are replaced with fresh receiver solution.
Compound,Assay B: GABAA α 5 β 3 γ 2 Emax vs GABA (α5ß2 γ2 GABAA Receptor) [%],EC50 (α5ß2 γ2 GABAA Receptor) [nM],half-life at 1 μM [1] [min],Papp A→B (human MDR1 P-gp) [×10⁻⁶ cm/s],efflux ratio (human MDR1 P-gp)
"Cc1nnn(-c2ccc(C(F)F)cn2)c1COc1ccc(-c2ccc(=O)n(C)c2)nn1 [Example 1, 5-[6-({1-[5-(difluoromethyl)pyridin-2-yl]-4-methyl-1H-1,2,3-triazol-5-yl}methoxy)pyridazin-3-yl]-1-methyl-1,2-dihydropyridin-2-one]",-24.9,41.3,> 130,31,1.8
Cc1nnn(-c2ccc(C(F)F)cn2)c1COc1ccc(-c2cnc(N)nc2)nn1 [Example 2],-25.3,92.5,,34,1.9
Cc1cc(-c2ccc(OCc3c(C)nnn3-c3ccc(C(F)F)cn3)nn2)cnn1 [Example 3],-24.7,6.6,> 130,41,1.4
Cc1nnn(-c2ccc(C(F)F)cn2)c1COc1ccc(-c2cc[nH]n2)nn1 [Example 5],-32.3,11.6,83,,
Cc1nnn(-c2ccc(C(F)F)cn2)c1COc1ccc(-c2cccc(C(N)=O)c2)nn1 [Example 6],-8.8,13.9,116,,
Cc1nnn(-c2ccc(C(F)F)cn2)c1COc1ccc(-c2cnn(CC#N)c2)nn1 [Example 7],-6.3,12.7,> 130,,
Cc1nnn(-c2ccc(C(F)F)cn2)c1COc1ccc(-c2ccc(C#N)nc2)nn1 [Example 8],2.7,,> 130,,
Cc1nnn(-c2ccc(C(F)F)cn2)c1COc1ccc(-c2ccc(C#N)s2)nn1 [Example 12],-12.3,147,,51,0.3
CNc1cccc(-c2ccc(OCc3c(C)nnn3-c3ccc(C(F)F)cn3)nn2)n1 [Example 14],-21,89,,55,0.7
Cc1n[nH]c(C)c1-c1ccc(OCc2c(C)nnn2-c2ccc(C(F)F)cn2)nn1 [Example 15],-24.7,34.7,,17,3.5
Cc1nnn(-c2ccc(C(F)F)cn2)c1COc1ccc(-c2ccc(S(C)(=O)=O)nc2)nn1 [Example 16],-20.3,85.9,,59,0.6
Cc1nnn(-c2ccc(C(F)F)cn2)c1COc1ccc(-c2ccc(N)nc2)nn1 [Example 19],-28.5,64,,41,1.2
Cn1nnc(-c2ccc(C(F)F)cn2)c1COc1ccc(-c2ccc(S(C)(=O)=O)nc2)nn1 [Example 23],-8,3.1,> 130,,
Cn1nnc(-c2ccc(C(F)F)cn2)c1COc1ccc(-c2ccc(N)nc2)nn1 [Example 25],-11,8.2,> 130,,
Cc1c(-c2ccc(OCc3c(-c4ccc(C(F)F)cn4)nnn3C)nn2)cc(C#N)n1C [Example 29],-29,11.5,97,,
Cc1nn(C)cc1-c1ccc(OCc2c(-c3ccc(C(F)F)cn3)nnn2C)nn1 [Example 30],-4.7,4.6,> 130,,
COc1ncc(-c2ccc(OCc3c(-c4ccc(C(F)F)cn4)nnn3C)nn2)cn1 [Example 31],-12.3,20,127,,
Cn1nnc(-c2ccc(C(F)F)cn2)c1COc1ccc(-c2cnn(C3CCC3)c2)nn1 [Example 32],-3.3,,78,,
Cc1c(-c2ccc(OCc3c(-c4ccc(C(F)F)cn4)nnn3C)nn2)cnn1C [Example 33],-21,29.5,98,,
Cn1nnc(-c2ccc(C(F)F)cn2)c1COc1ccc(-c2cnc3nonc3c2)nn1 [Example 35],-9.6,63,> 130,,
Cc1nnn(-c2ccc(C(F)F)cn2)c1COc1ccc(-n2ncnc2C)nn1 [Example 38],-22.5,22.8,,86,0.5
"Cc1nnn(-c2ccc(C(F)F)cn2)c1COc1ccc(-n2cnc(C#N)c2)nn1 [Example 42, 1-[6-({1-[5-(difluoromethyl)pyridin-2-yl]-4-methyl-1H-1,2,3-triazol-5-yl}methoxy)pyridazin-3-yl]-1H-imidazole-4-carbonitrile]",-25,15.8,,24,1.4
Cc1nnn(-c2ccc(C(F)F)cn2)c1COc1ccc(-n2nccn2)nn1 [Example 43],-20.2,24.8,,54,0.7
Cn1nnc(-c2ccc(C(F)F)cn2)c1COc1ccc(-n2cc(C#N)cn2)nn1 [Example 49],5.7,,> 130,,
Cn1nnc(-c2ccc(C(F)F)cn2)c1COc1ccc(-n2cccn2)nn1 [Example 50],-13.7,12,130,,
Cn1nnc(-c2ccc(C(F)F)cn2)c1COc1ccc(-n2ccc(C#N)n2)nn1 [Example 53],,3.9,> 130,,
